Columns and labels:
CDK2/CycE = biological target: T1, CDK2/CycE (Homo sapiens, UniProt P24941); assay: CDK2/CycE kinase assay (TR-FRET, 2 mM ATP); format: biochemical; conditions: 2 mM ATP (high ATP); median; read-out: CDK2/CyclinE, 2 mM ATP (high ATP), IC50 (median)
T1 construct: purchased ProQinase GmbH (Freiburg, Germany); host or cells: insect cells (Sf9)
Method in brief: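 GST-tagged human CDK2 and CycE from Sf9 cells, about 10 ng/ml, pre-incubated 15 min at 22 °C with compound in Tris/HCl pH 8.0 buffer. Reaction with 2 mM ATP and 0.75 µM biotinylated peptide for 25 min at 22 °C. Phospho-RB antibody TR-FRET (665/620 nm ratio) read after 1 h; data normalised to no-inhibitor and no-enzyme controls.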

[1] = tested on: BRCA1 mRNA expression in MDA-MB-231 cells; assay: qRT-PCR assay: BRCA1 mRNA expression in MDA-MB-231; format: cell-based, human; conditions: Homo sapiens, MDA-MB-231, Inhibition of BRCA1 mRNA expression in MDA-MB-231 cells; median; read-out: RTqPCR-MDA-MB-231, IC50, BRCA1 (median)
Method in brief: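 GAPDH-normalised RT-qPCR measures the transcript after 24 h continuous compound treatment of cells seeded at 200,000/well one day earlier.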

[2] = tested on: CAL-120, human breast adenocarcinoma cells; assay: Proliferation assay CAL-120 (crystal violet, 4 days); format: cell-based; conditions: Homo sapiens, CAL-120, 96 h, CAL-120 cells, median, read-out: Prolif-CAL-120, IC50-[mol/l] (median)
Method in brief: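 Following a 24 h attachment in 10% fetal calf serum medium, cells receive test substance over 0.01-10 µmol/L for 4 days. Dye retained by fixed cells is eluted and read at 595 nm; cell number change is referenced to day-0 and untreated wells.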

| IC50 (CDK2/CycE) | IC50 [1] | IC50 [2] | Structure (SMILES) |
| --- | --- | --- | --- |
| 9480 nM | 20.8 nM | 33.2 nM | CN(CC1CC1)c1nc(NCc2nc3ccccc3[nH]2)n2ncc(Br)c2n1 [Example 287, N^4-[(1H-benzimidazol-2-yl)methyl]-8-bromo-N^2-(cyclopropylmethyl)-N^2-methylpyrazolo[1,5-a][1,3,5]triazine-2,4-diamine] |
| 1790 nM | 6.41 nM | 6.92 nM | Brc1cnn2c(NCc3nc4ccccc4[nH]3)nc(N3C[C@@H]4C[C@H]3CN4)nc12 [Example 270, N-[(1H-benzimidazol-2-yl)methyl]-8-bromo-2-[(1S,4S)-2,5-diazabicyclo[2.2.1]heptan-2-yl]pyrazolo[1,5-a][1,3,5]triazin-4-amine] |
| > 20000 nM | 5.83 nM | 4.11 nM | CN1CCN(c2nc(NCc3nc4cc(F)c(Cl)cc4[nH]3)n3ncc(C4CC4)c3n2)CC1 [Example 309, N-[(6-chloro-5-fluoro-1H-benzimidazol-2-yl)methyl]-8-cyclopropyl-2-(4-methylpiperazin-1-yl)pyrazolo[1,5-a][1,3,5]triazin-4-amine] |
| > 20000 nM | 5.42 nM | 30.9 nM | COc1cccc2[nH]c(CNc3nc(N4CCOCC4)nc4c(CC(F)(F)F)cnn34)nc12 [Example 277, N-[(4-methoxy-1H-benzimidazol-2-yl)methyl]-2-(morpholin-4-yl)-8-(2,2,2-trifluoroethyl)pyrazolo[1,5-a][1,3,5]triazin-4-amine] |
| 12200 nM | 20.8 nM | 6.91 nM | CN[C@@H]1CCN(c2nc(NCc3nc4ccccc4[nH]3)n3ncc(Br)c3n2)C1 [Example 253, N-[(1H-benzimidazol-2-yl)methyl]-8-bromo-2-[(3R)-3-(methylamino)pyrrolidin-1-yl]pyrazolo[1,5-a][1,3,5]triazin-4-amine] |
| > 20000 nM | 6.94 nM | 7.21 nM | CN(CC(C)(C)O)c1nc(NCc2nc3cc(Cl)c(Cl)cc3[nH]2)n2ncc(C3CC3)c2n1 [Example 306, 1-[(8-cyclopropyl-4-{[(5,6-dichloro-1H-benzimidazol-2-yl)methyl]amino}pyrazolo[1,5-a][1,3,5]triazin-2-yl)(methyl)amino]-2-methylpropan-2-ol] |
| > 20000 nM | 5.55 nM | 9.79 nM | c1ccc2[nH]c(CNc3nc(N4CCNCC4)nc4c(C5CC5)cnn34)nc2c1 [Example 247, N-[(1H-benzimidazol-2-yl)methyl]-8-cyclopropyl-2-(piperazin-1-yl)pyrazolo[1,5-a][1,3,5]triazin-4-amine] |
| > 20000 nM | 3.89 nM | 7.54 nM | Fc1ccc2[nH]c(CNc3nc(N4CCOCC4)nc4c(C5CC5(F)F)cnn34)nc2c1F (stereo not drawn) [Example 278, N-[(4,5-difluoro-1H-benzimidazol-2-yl)methyl]-8-(2,2-difluorocyclopropyl)-2-(morpholin-4-yl)pyrazolo[1,5-a][1,3,5]triazin-4-amine] |

| Structure (SMILES) | IC50 (CDK2/CycE) | IC50 [1] | IC50 [2] |
| --- | --- | --- | --- |
| Fc1ccc2[nH]c(CNc3nc(N4CC5CCC(C4)N5)nc4c(C(F)(F)F)cnn34)nc2c1F [Example 310, 2-(3,8-diazabicyclo[3.2.1]octan-3-yl)-N-[(4,5-difluoro-1H-benzimidazol-2-yl)methyl]-8-(trifluoromethyl)pyrazolo[1,5-a][1,3,5]triazin-4-amine] | > 18600 nM | 35.1 nM | 1.74 nM |
| Fc1ccc2[nH]c(CNc3nc(N4C[C@H]5CC[C@@H](C4)N5)nc4c(C5CC5)cnn34)nc2c1F [Example 294, 8-cyclopropyl-2-[(1R,5S)-3,8-diazabicyclo[3.2.1]octan-3-yl]-N-[(4,5-difluoro-1H-benzimidazol-2-yl)methyl]pyrazolo[1,5-a][1,3,5]triazin-4-amine] | 17200 nM | 1.16 nM | 1.42 nM |
